Blank lines part the entries; values can stand above or below the compound they belong to.
Tests used:
ACAT = ACAT enzyme activity in mouse tissue homogenates after IV injection of nanoparticles; assay type: in vivo; conditions: delivered IV in nanoparticles
Procedure: A1^−/− refers to Acat1^−/− mouse. ACAT activity was determined by using a mixed liposome assay. N=4 for WT mice age (2-3 months) and gender matched. N=1 for A1^−/− mouse. N.S., not significant; P<0.05*, P<0.01**, P<0.001***. Analysis by two-way ANOVA. The significance is relative to vehicle-treated group.
A1^−/− refers to Acat1^−/− mouse. Note, the major isoenzyme in mouse liver is ACAT2. ACAT activity was determined without or with perfusion as indicated. N=3-4 for WT mice age- and gender-matched. N=1 for A1^−/− mouse. N.S., not significant; P<0.05*, P<0.01**, P<0.001***. Two-way ANOVA. The significance is relative to vehicle-treated group.
Mice were perfused before brains were isolated. N=2-3 WT mice/group. N=1 A1^−/− mouse. Statistical analysis, 2-way ANOVA. *P<0.05; **P<0.01; ***P<0.001.
As a component of the above-referenced analysis, a portion of the mice were treated with perfusion (to remove blood contamination from tissues).

ACAT1 [1] = molecular target: T1, ACAT1 (Homo sapiens (Human), UniProt P35610); experiment: human ACAT1 IC50 by mixed liposome assay
T1 sequence (P35610 whole entry): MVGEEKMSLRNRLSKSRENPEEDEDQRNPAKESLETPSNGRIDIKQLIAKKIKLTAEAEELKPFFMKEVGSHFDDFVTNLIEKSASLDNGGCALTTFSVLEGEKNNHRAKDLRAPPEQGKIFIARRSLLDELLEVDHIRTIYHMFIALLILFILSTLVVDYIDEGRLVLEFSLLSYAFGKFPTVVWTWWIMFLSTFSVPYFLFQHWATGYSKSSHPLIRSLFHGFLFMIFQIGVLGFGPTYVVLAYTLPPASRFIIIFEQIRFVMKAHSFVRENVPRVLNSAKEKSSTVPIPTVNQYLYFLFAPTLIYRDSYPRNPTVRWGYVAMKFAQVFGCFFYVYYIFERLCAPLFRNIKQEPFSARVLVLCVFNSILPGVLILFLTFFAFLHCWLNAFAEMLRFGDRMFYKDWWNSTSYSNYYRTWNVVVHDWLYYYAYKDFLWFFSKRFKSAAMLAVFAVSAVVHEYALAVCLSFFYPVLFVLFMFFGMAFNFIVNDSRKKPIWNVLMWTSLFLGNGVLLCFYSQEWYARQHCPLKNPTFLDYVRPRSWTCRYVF
Procedure: In vitro Mixed Liposomal ACAT Activity Assay. […] Lysed cells were collected and aliquoted into pre-chilled tubes containing the liposomal mixture of taurocholate, phosphatidylcholine, and cholesterol. Tubes were vortexed and kept on ice for 5 minutes. Samples were then incubated in a 37° C. shaking water bath with ^3H-oleoyl CoA added for 10 minutes. The assay was stopped by adding CHCl3:MeOH (2:1). Lipids were extracted and analyzed by the same TLC method described herein.

[2] = in vivo; cited from earlier work
[3] = mice, orally administered; cited from earlier work
ABCA1 = ABCA1 protein content in human myelin debris-treated HMC3 cells; assay type: cell-based; conditions: HMC3, human myelin debris 25 μg/mL cholesterol, 0.5 μM, 24 hours
Procedure: […]. Afterward, cells were harvested for western blot analyses. Lysates of HEK293 cells and lysates of HMC3 cells treated with 10 μM LXR agonist T0901317 for 24 hours were respectively used as negative and positive controls for ABCA1 signals. […] Data are expressed as mean±SEM.
Subsequently, myelin debris from human brains was prepared and it was observed that the cholesterol/protein ratio, as well as the protein composition between mouse myelin debris and human myelin debris, were very similar. […]

ACAT2 [4] = molecular target: T2, ACAT2 (Homo sapiens (Human), UniProt O75908); conditions: cited from earlier work
T2 sequence (O75908 whole entry): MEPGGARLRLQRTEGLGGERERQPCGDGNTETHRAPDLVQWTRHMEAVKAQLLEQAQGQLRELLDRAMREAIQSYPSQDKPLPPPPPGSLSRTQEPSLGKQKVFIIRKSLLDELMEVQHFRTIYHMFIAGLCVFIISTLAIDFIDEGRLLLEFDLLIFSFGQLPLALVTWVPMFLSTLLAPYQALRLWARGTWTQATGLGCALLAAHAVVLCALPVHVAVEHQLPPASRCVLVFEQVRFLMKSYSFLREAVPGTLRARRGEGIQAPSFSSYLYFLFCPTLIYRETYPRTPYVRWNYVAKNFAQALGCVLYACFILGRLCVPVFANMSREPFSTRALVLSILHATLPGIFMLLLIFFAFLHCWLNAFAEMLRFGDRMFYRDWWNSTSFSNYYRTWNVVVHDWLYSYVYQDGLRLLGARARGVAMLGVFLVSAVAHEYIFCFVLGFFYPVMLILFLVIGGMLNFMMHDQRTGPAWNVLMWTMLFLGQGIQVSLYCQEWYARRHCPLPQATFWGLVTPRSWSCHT

primary cortical neurons = experiment: Lactate dehydrogenase (LDH) toxicity assay
Procedure: Cells were incubated in enriched neurobasal (NB) medium (Thermo Fisher Scientific, Waltham, MA) (500 mL NB media, 200 mM L-glutamine, B-27 with vitamin A, 1 mL penicillin-streptomycin (1%), and 340 mg glucose). Neurons were allowed to grow processes for 4-6 days prior to treatment.
Lactate Dehydrogenase (LDH) Toxicity Assay. Primary cortical neurons were harvested and maintained as described above. […] After treatment, the conditioned media from the cells were collected, spun at 12,000 rpm for 30 minutes to remove cellular debris, supernatant transferred to new tube, and frozen at −80° C. until time of assay. Using Cytotoxicity Detection Kit (LDH) (Roche), media and reaction mixture were mixed, incubated for 30 minutes at room temperature protected from light, and the absorbance was measured at 490 nm.

IL-4Rα [5] = experiment: IL-4Rα protein content in HMC3 cells (western blot); assay type: cell-based, human; conditions: for IL-4Rα protein content: human myelin debris-treated HMC3 cells, co-incubation
Procedure: . Exp. 130:56322) for 21 hours.
. […] Protein was isolated and analyzed by western blot analysis. Vinculin was the loading control. […]; **P<0.01.
Subsequently, myelin debris from human brains was prepared and it was observed that the cholesterol/protein ratio, as well as the protein composition between mouse myelin debris and human myelin debris, were very similar.

N9 microglial cells = experiment: inflammatory responses to LPS in N9 microglial cells (qPCR, IκB-α western blot); assay type: cell-based, mouse; conditions: 0.5 μM for 4 hours, then LPS 10-1000 ng/mL
Procedure: Six hours later, mRNA was extracted, and qPCR was performed to monitor pro-inflammatory (FIG. 4A) or anti-inflammatory (FIG. 4B) gene expression. […] Thirty minutes later, proteins were extracted for western blot analysis for total IκB-α, and for phosphorylated […]<0.01.

IL-4Rα [6] = experiment: IL-4Rα expression in N9 microglial cells (immunoblot)
Procedure: Cells were harvested for immunoblot analysis for IL-4Rα. Vinculin was the loading control. Data expressed as mean+/− SEM, * p<0.05, ** p<0.01.
IL-4Rα expression was determined by convention methods. 25 μg/mL cholesterol equals 38 μg/mL total myelin debris protein. Data are expressed as mean±SEM. *P<0.05; **P<0.01.

amyloidopathy = conditions: in vivo; cited from earlier work
ACAT1 [7] = molecular target: T1, ACAT1; conditions: cited from earlier work
ACAT2 [8] = molecular target: T2, ACAT2; conditions: cited from earlier work; remark: listed apart in the source
mouse ACAT1 = mouse ACAT1 (Mus musculus (Mouse), UniProt Q61263); experiment: ACAT1 protein by western blot in microRNA-transfected NIH-3T3 mouse fibroblasts; assay type: cell-based; conditions: for Relative Intensity (ACAT1 normalized to GAPDH): NIH-3T3, GFP-positive cells, 48 hours post-transfection; for reduction in ACAT1 protein content: mouse 3T3 fibroblasts, cDNA transfection
Description: NIH-3T3 mouse fibroblasts were transiently transfected with one of several rAAV vectors encoding EmGFP and microRNA (miR) #52, #53, #54 or #55. Forty-eight hours post-transfection, GFP-positive cells were harvested by FACS. GFP-positive cells were washed then lysed in 10% SDS and syringe homogenized. Twenty microgram of protein per sample was subjected to SDS-PAGE. After western blot analysis, bands were quantified with ImageJ. ACAT1 intensity was normalized to GAPDH as a loading control and expressed as relative intensity.
Four different siRNA molecules (#52-#55; Table 3) targeting the mouse Acat1 gene were inserted into an endogenous mouse microRNA (miR) scaffold using Invitrogen's RNAi design tool. The artificial miRs were ligated into the mammalian expression vector pcDNA6.2-GW/EmGFP-miR. […] The miRs were delivered to the cells using a standard cDNA transfection protocol.

brain permeability (ACAT): brain permeable
IC50 (ACAT1 [1]): 13 nM
potency relative to F12511 (ACAT1 [1]): ~3 times
Compound: CCCCCCCCCCCCS(=O)(=O)[C@](F)(C(=O)Nc1cc(C)c(O)c(C)c1C)c1ccccc1 [Analog F26]

brain permeability (ACAT): permeable to the brain
Compound: CCCCCCCCCCCCS[C@H](C(=O)Nc1cc(C)c(O)c(C)c1C)c1ccccc1 [Analog F12511]
clinical safety [2]: passed phase I clinical safety tests
half-life in the blood [3]: 1 to 2 h
ABCA1 protein content (ABCA1): increased significantly
Ki (ACAT2 [4]): 110 nM
cellular toxicity (LDH leakage) (primary cortical neurons; 24 hours, 2 μM to 100 μM): minimal, if any, toxicity
cellular toxicity (LDH leakage) (primary cortical neurons; 48 hours, very high concentrations (near 100 μM)): slight increase in toxicity
cellular toxicity (LDH leakage) (primary cortical neurons; 72 hours, 10 μM): only very minimal toxicity
cellular toxicity (LDH leakage) (primary cortical neurons; 72 hours, high concentration (near 100 μM)): more toxicity was detected
IL-4Rα protein content (IL-4Rα [5]): IL-4Rα protein content increases

Compound: CSc1cc(C)nc(SC)c1NC(=O)CN1CCN(CCSc2nc3ccccc3[nH]2)CC1 [Analog K-604, 2-[4-[2-(benzimidazol-2-ylthio)ethyl]piperazin-1yl]-N-[2,4-bis(methylthio)-6-methyl-3-pyridyl]acetamide]
clinical safety [2]: passed phase I clinical safety tests
inflammatory responses to LPS (N9 microglial cells): attenuates inflammatory responses to LPS
ABCA1 protein content (ABCA1): increased significantly
expression of the receptor IL-4Rα (IL-4Rα [6]; 0.5 μM for 4 or 12 hours): increases expression of the receptor IL-4Rα
enhancing effect on IL4R-α with myelin debris (IL-4Rα [6]; mouse myelin debris, 21 hours): more robust
enhancing effect on IL4R-α with myelin debris (IL-4Rα [5]; HMC3 cells, mouse myelin debris, 21 hours): more robust
IL-4Rα protein content (IL-4Rα [5]): IL-4Rα protein content increases

Compound: CC(C)c1cc(C(C)C)c(CC(=O)NS(=O)(=O)Oc2c(C(C)C)cccc2C(C)C)c(C(C)C)c1 [CI 1011]
amyloidopathy in a mouse model for AD (amyloidopathy): reduce amyloidopathy

Compound: CCCCCCCC[C@H](SCCCCCC)C(=O)Nc1c(SC)cc(C)nc1SC [CP113,818]
amyloidopathy in a mouse model for AD (amyloidopathy): reduce amyloidopathy and rescue cognitive deficits

Compound: CCOC(=O)OC(=O)OCC [diethyl pyrocarbonate]
fold lower IC50 / greater activity for ACAT1 than for ACAT2 (ACAT1 [7]): 4 fold

Compound: COc1ccc([C@@H](O)[C@@H](C)Oc2ccc([C@H]3O[C@H](c4ccc(O[C@H](C)[C@H](O)c5ccc6c(c5)OCO6)c(OC)c4)[C@H](C)[C@H]3C)cc2OC)cc1OC [manassantin B]
inhibition of hACAT-2 (ACAT2 [8]; at 1 mM): 32%

Compound: miR #52: artificial microRNA targeting mouse ACAT1 sequence GGAGCTGAAGCCACTATTTAT (SEQ ID NO:1) (expressed or natural sequence; the letters are possibly those of the target site)
Relative Intensity (ACAT1 normalized to GAPDH) (mouse ACAT1): 0.77

Compound: miR #53: artificial microRNA targeting mouse ACAT1 sequence CTGTTTGAAGTGGACCACATCA (SEQ ID NO:2) (expressed or natural sequence; the letters are possibly those of the target site)
Relative Intensity (ACAT1 normalized to GAPDH) (mouse ACAT1): 0.56

Compound: miR #54: artificial microRNA targeting mouse ACAT1 sequence CCCGGTTCATTCTGATACTGGA (SEQ ID NO:3) (expressed or natural sequence; target site or template, no part of the molecule)
Relative Intensity (ACAT1 normalized to GAPDH) (mouse ACAT1): 0.54
reduction in ACAT1 protein content (mouse ACAT1): 50-60%

Compound: miR #55: artificial microRNA targeting mouse ACAT1 sequence AACTACCCAAGGACTCCTACTGTA (SEQ ID NO:4) (expressed or natural sequence; the letters are possibly those of the target site)
Relative Intensity (ACAT1 normalized to GAPDH) (mouse ACAT1): 0.39
reduction in ACAT1 protein content (mouse ACAT1): 50-60%

Compound: miR Negative Control: negative control miR (SEQ ID NO:9) which does not match any known vertebrate gene (TACTGCGCGTGGAGACG)
Relative Intensity (ACAT1 normalized to GAPDH) (mouse ACAT1): 1.02

Compound: saucerneol B
IC50 (ACAT2 [8]; Lee et al. 2004, read-out: IC50 hACAT-2): 124000 nM
